According to patent publication US6716392B1, “Preservation of liquid biological samples” (The United States of America as represented by the United …, priority 1995, dated 2004):
Where two headings read alike, the source gives them in different places.

What was measured:
[1] = Stability of spiked APAP and AP in saliva (HPLC); assay type: physicochemical
Description: Non-invasive estimates of physiological and pharmacokinetic alterations may be obtained by measuring the concentrations of certain compounds and their metabolites in liquid biological samples (e.g., saliva). For example, gastrointestinal activity and the absorption, bioavailability and elimination of acetaininophen (“APAP”) may be assessed by measuring APAP concentrations in liquid biological samples following oral administration of APAP. In addition, hepatic metabolism may be measured indirectly from the clearance of orally administered antipyrine (“AP”) from liquid biological samples. The accuracy of such non-invasive estimates depends, in part, upon the stability of the reference compound or metabolite in the liquid biological sample. Therefore, the effectiveness of a particular preservative may be evaluated by determining the degradation time course for a known quantity of a specific reference compound.
The effectiveness of the preservative of the present invention was evaluated by measuring the stability of APAP and AP in saliva samples stored at −20° C. as compared to saliva samples stored at room temperature and containing sodium benzoate and citric acid in an amount of 0.25% and 0.05% of the sample (weight/volume), respectively (“P1”). Saliva samples were collected from forty subjects, pooled, aliquoted and spiked with APAP (5 or 25 μg/ml) or AP (5 or 50 μg/ml). Duplicate samples were analyzed by high performance liquid chromatography on days 1, 14, 28, 60, 120, 180, 240 and 360 (see Tables 1-4 below).

[2] = assay type: physicochemical; settings: for storage time over which concentrations in saliva were comparable / preserved: room temperature in the presence of P1 versus −20° C.; for SALIVA STABILITY OF MELATONIN: human
Procedure: The effectiveness of the preservative of the present invention in maintaining the stability of hormones in liquid biological samples was evaluated by measuring the maintenance of base-line physiological levels of melatonin and cortisol in saliva. Aliquots (non-spiked) of the pooled saliva samples containing base-line physiological levels of melatonin and cortisol were stored −20° C. or at room temperature and containing sodium benzoate and citric acid in an amount of 0.25% and 0.05% of the sample (weight/volume), respectively (“P1”). Duplicate samples were analyzed by radioimmunoassay on days 1, 14, 28, 60, 120, 180, 240 and 360 (see Tables 5 and 6 below).

CC(=O)Nc1ccc(O)cc1 [APAP, acetaminophen]
Saliva Stability (APAP concentration) ([1]; 5 μg/ml APAP, No Preservative, −20° C., Day 01): 5.83 ± 0.08 µg/mL | Saliva Stability (APAP concentration) ([1]; 5 μg/ml APAP, No Preservative, −20° C., Day 14): 6.59 ± 0.61 µg/mL | Saliva Stability (APAP concentration) ([1]; 5 μg/ml APAP, No Preservative, −20° C., Day 28): 5.81 ± 0.08 µg/mL | Saliva Stability (APAP concentration) ([1]; 5 μg/ml APAP, No Preservative, −20° C., Day 60): 5.82 ± 0.20 µg/mL | Saliva Stability (APAP concentration) ([1]; 5 μg/ml APAP, No Preservative, −20° C., Day 120): 5.54 ± 0.33 µg/mL | Saliva Stability (APAP concentration) ([1]; 5 μg/ml APAP, No Preservative, −20° C., Day 180): 3.77 ± 0.03 µg/mL | Saliva Stability (APAP concentration) ([1]; 5 μg/ml APAP, No Preservative, −20° C., Day 240): 4.17 ± 0.16 µg/mL | Saliva Stability (APAP concentration) ([1]; 5 μg/ml APAP, No Preservative, −20° C., Day 360): 5.14 ± 0.09 µg/mL | Saliva Stability (APAP concentration) ([1]; 5 μg/ml APAP, P1, RT, Day 01): 5.49 ± 0.09 µg/mL | Saliva Stability (APAP concentration) ([1]; 5 μg/ml APAP, P1, RT, Day 14): 5.38 ± 0.14 µg/mL | Saliva Stability (APAP concentration) ([1]; 5 μg/ml APAP, P1, RT, Day 28): 4.83 ± 1.79 µg/mL | Saliva Stability (APAP concentration) ([1]; 5 μg/ml APAP, P1, RT, Day 60): 6.89 ± 0.94 µg/mL | Saliva Stability (APAP concentration) ([1]; 5 μg/ml APAP, P1, RT, Day 120): 5.40 ± 0.20 µg/mL | Saliva Stability (APAP concentration) ([1]; 5 μg/ml APAP, P1, RT, Day 180): 4.37 ± 0.08 µg/mL | Saliva Stability (APAP concentration) ([1]; 5 μg/ml APAP, P1, RT, Day 240): 4.29 ± 0.25 µg/mL | Saliva Stability (APAP concentration) ([1]; 5 μg/ml APAP, P1, RT, Day 360): 5.31 ± 0.43 µg/mL | Saliva Stability (APAP concentration) ([1]; 25 μg/ml APAP, No Preservative, −20° C., Day 01): 24.88 ± 0.22 µg/mL | Saliva Stability (APAP concentration) ([1]; 25 μg/ml APAP, No Preservative, −20° C., Day 14): 25.60 ± 0.41 µg/mL | Saliva Stability (APAP concentration) ([1]; 25 μg/ml APAP, No Preservative, −20° C., Day 28): 25.25 ± 0.48 µg/mL | Saliva Stability (APAP concentration) ([1]; 25 μg/ml APAP, No Preservative, −20° C., Day 60): 25.02 ± 0.4 µg/mL | Saliva Stability (APAP concentration) ([1]; 25 μg/ml APAP, No Preservative, −20° C., Day 120): 25.45 ± 0.49 µg/mL | Saliva Stability (APAP concentration) ([1]; 25 μg/ml APAP, No Preservative, −20° C., Day 180): 16.71 ± 0.50 µg/mL | Saliva Stability (APAP concentration) ([1]; 25 μg/ml APAP, No Preservative, −20° C., Day 240): 18.20 ± 0.14 µg/mL | Saliva Stability (APAP concentration) ([1]; 25 μg/ml APAP, No Preservative, −20° C., Day 360): 24.37 ± 0.36 µg/mL | Saliva Stability (APAP concentration) ([1]; 25 μg/ml APAP, P1, RT, Day 01): 24.94 ± 0.56 µg/mL | Saliva Stability (APAP concentration) ([1]; 25 μg/ml APAP, P1, RT, Day 14): 24.63 ± 0.12 µg/mL | Saliva Stability (APAP concentration) ([1]; 25 μg/ml APAP, P1, RT, Day 28): 27.3 ± 1.54 µg/mL | Saliva Stability (APAP concentration) ([1]; 25 μg/ml APAP, P1, RT, Day 60): 29.88 ± 3.58 µg/mL | Saliva Stability (APAP concentration) ([1]; 25 μg/ml APAP, P1, RT, Day 120): 24.20 ± 0.47 µg/mL | Saliva Stability (APAP concentration) ([1]; 25 μg/ml APAP, P1, RT, Day 180): 17.55 ± 0.46 µg/mL | Saliva Stability (APAP concentration) ([1]; 25 μg/ml APAP, P1, RT, Day 240): 17.21 ± 0.36 µg/mL | Saliva Stability (APAP concentration) ([1]; 25 μg/ml APAP, P1, RT, Day 360): 25.70 ± 0.55 µg/mL

C[C@]12CCC(=O)C=C1CC[C@@H]1[C@@H]2[C@@H](O)C[C@@]2(C)[C@H]1CC[C@]2(O)C(=O)CO [Cortisol, cortisol]
storage time over which concentrations in saliva were comparable / preserved [2]: 180 days

COc1ccc2[nH]cc(CCNC(C)=O)c2c1 [Melatonin, melatonin]
SALIVA STABILITY OF MELATONIN ([2]; 28 day): 31.71 ± 4.4 pg/mL | SALIVA STABILITY OF MELATONIN ([2]; 28 days): 29.43 ± 5.9 pg/mL | storage time over which concentrations in saliva were comparable / preserved [2]: 180 days
